Results published in patent publication US9221802B2, “Arylethynyl derivatives” (Hoffmann-La Roche Inc., priority 2012, dated 2015).
pEC50: −log10 of the molar value. Where two headings read alike, the source gives them in different places.

Assays:
human mGlu5a receptor = human mGlu5a receptor (Homo sapiens (Human), UniProt P41594); test: Intracellular Ca2+ mobilization assay; format: cell-based; details: for pEC50 / EC50: HEK-293 cells expressing human mGlu5a; for pEC50: PAM activity in presence of EC20 L-glutamate, read-out: Ec50; for EC50: PAM activity, read-out: EC50 (nM) mGlu5 PAM; for Emax: maximal response in % of maximal stimulatory effect of saturating L-glutamate, read-out: Efficacy [%]
Chain of human mGlu5a receptor (P41594 other isoform, or with tags, fused parts or gaps): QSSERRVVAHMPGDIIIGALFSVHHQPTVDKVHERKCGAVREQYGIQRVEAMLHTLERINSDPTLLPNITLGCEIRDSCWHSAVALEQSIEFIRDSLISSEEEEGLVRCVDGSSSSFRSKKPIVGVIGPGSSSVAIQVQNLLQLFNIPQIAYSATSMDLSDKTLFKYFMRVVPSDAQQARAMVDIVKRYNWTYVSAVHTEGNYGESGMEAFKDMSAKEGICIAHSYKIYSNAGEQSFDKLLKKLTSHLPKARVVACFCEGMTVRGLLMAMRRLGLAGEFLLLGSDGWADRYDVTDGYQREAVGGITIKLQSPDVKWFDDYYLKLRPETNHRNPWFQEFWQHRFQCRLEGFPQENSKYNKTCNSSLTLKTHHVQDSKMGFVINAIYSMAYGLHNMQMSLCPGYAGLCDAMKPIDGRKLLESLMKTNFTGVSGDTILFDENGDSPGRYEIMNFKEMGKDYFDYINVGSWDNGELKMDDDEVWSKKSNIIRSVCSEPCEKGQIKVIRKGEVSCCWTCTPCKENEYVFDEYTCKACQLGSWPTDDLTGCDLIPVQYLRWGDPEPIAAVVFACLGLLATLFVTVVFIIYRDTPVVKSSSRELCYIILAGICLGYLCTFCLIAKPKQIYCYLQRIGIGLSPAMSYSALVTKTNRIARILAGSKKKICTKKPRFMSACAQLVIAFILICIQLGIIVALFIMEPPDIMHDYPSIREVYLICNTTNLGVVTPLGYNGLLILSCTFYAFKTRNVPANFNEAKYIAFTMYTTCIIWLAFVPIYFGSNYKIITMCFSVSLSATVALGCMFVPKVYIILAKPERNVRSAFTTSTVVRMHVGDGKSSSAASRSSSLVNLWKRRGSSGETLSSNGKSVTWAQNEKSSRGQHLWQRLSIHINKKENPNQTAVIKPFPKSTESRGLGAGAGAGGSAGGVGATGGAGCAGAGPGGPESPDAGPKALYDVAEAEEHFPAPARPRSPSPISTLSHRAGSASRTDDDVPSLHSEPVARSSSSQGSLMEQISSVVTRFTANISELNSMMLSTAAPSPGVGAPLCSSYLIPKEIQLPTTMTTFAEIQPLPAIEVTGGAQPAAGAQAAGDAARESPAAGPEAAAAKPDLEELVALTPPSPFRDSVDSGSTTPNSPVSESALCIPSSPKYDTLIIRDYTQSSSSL
Experimental: A monoclonal HEK-293 cell line stably transfected with a cDNA encoding for the human mGlu5a receptor was generated; for the work with mGlu5 Positive Allosteric Modulators (PAMs), a cell line with low receptor expression levels and low constitutive receptor activity was selected to allow the differentiation of agonistic versus PAM activity. Cells were cultured according to standard protocols (Freshney, 2000) in Dulbecco's Modified Eagle Medium with high glucose supplemented with 1 mM glutamine, 10% (vol/vol) heat-inactivated bovine calf serum, Penicillin/Streptomycin, 50 μg/ml hygromycin and 15 μg/ml blasticidin (all cell culture reagents and antibiotics from Invitrogen, Basel, Switzerland).
About 24 hrs before an experiment, 5×10^4 cells/well were seeded in poly-D-lysine coated, black/clear-bottomed 96-well plates. The cells were loaded with 2.5 μM Fluo-4AM in loading buffer (1×HBSS, 20 mM HEPES) for 1 hr at 37° C. and washed five times with loading buffer. The cells were transferred into a Functional Drug Screening System 7000 (Hamamatsu, Paris, France), and 11 half logarithmic serial dilutions of test compound at 37° C. were added and the cells were incubated for 10-30 min. with on-line recording of fluorescence. Following this pre-incubation step, the agonist L-glutamate was added to the cells at a concentration corresponding to EC20 (typically around 80 μM) with on-line recording of fluorescence; in order to account for day-to-day variations in the responsiveness of cells, the EC20 of glutamate was determined immediately ahead of each experiment by recording of a full dose-response curve of glutamate. Responses were measured as peak increase in fluorescence minus basal (i.e. fluorescence without addition of L-glutamate), normalized to the maximal stimulatory effect obtained with saturating concentrations of L-glutamate. Graphs were plotted with the % maximal stimulatory using XLfit, a curve fitting program that iteratively plots the data using Levenburg Marquardt algorithm. The single site competition analysis equation used was y=A+((B−A)/(1+((x/C)D))), where y is the % maximal stimulatory effect, A is the minimum y, B is the maximum y, C is the EC50, x is the log 10 of the concentration of the competing compound and D is the slope of the curve (the Hill Coefficient). From these curves the EC50 (concentration at which half maximal stimulation was achieved), the Hill coefficient as well as the maximal response (=Efficacy) in % of the maximal stimulatory effect obtained with saturating concentrations of L-glutamate were calculated.
A depression of the signal observed after addition of the EC20 concentration of L-glutamate was indicative of an inhibitory activity of the test compound.
The Intracellular Ca^2+ mobilization assay as described before was used for determination of EC50 values.

[1] = Glutathione (GSH) addition assay after metabolic activation; format: in vitro ADME, human; parameters: key: Samples for which the mass of a covalent adduct to a reactive metabolite was clearly detected are indicated as FLAG (positive); Compounds for which no adduct was detected are designated NO FLAG (negative); details: glutathione adduct detection after metabolic activation
Experimental: The assay conditions for the detection of glutathione conjugates follow the procedure described by C. M. Dieckhaus et al. in Chem. Res. Toxicol., 18, 630-638 (2005). Samples for which the mass of a covalent adduct to a reactive metabolite was clearly detected are indicated as FLAG (positive). Compounds for which no adduct was detected are designated NO FLAG (negative).
The “gold standard” CVB (covalent binding) assay, which detects the formation of covalent adducts by incubation of test compounds with human liver microsomes (HLM) needs to be conducted with 14C-labelled material. This is not appropriate for routine screening purposes. The glutathione assay after metabolic activation (see assay description) is appropriate for routine screening, and compounds that show significant activity in this assay are very likely to show activity in the CVB assay. […] Generally speaking, compounds of the present invention therefore have a clear advantage with respect to drug safety due to their much less pronounced tendency to form reactive metabolites compared to structurally similar compounds of prior art.

Compound	pEC50 (human mGlu5a receptor)	EC50 (human mGlu5a receptor)	Emax (human mGlu5a receptor)	GSH [HLM] [1]
O=C1OC[C@H]2CCC[C@H]2N1c1ccc(C#Cc2cccc(F)c2)cn1 [Ex. 2, (4aS,7aR)-1-[5-(3-Fluorophenylethynyl)-pyridin-2-yl]-hexahydro-cyclopenta[d][1,3]oxazin-2-one]	8.00	10 nM	43%	NO FLAG
O=C1OC[C@H]2CCC[C@H]2N1c1ccc(C#Cc2ccccc2)cn1 [Ex. 1, (4aS,7aR)-1-(5-Phenylethynyl-pyridin-2-yl)-hexahydro-cyclopenta[d][1,3]oxazin-2-one]	7.66	22 nM	38%	NO FLAG
CC1(C)CCN(c2ccc(C#Cc3cc(F)ccc3F)cn2)C(=O)O1 [Ref. Ex. 81]	7.92	–	95%	FLAG
O=C1OC[C@H]2CCC[C@H]2N1c1ccc(C#Cc2ccc(F)cc2)cn1 [Ex. 3, (4aS,7aR)-1-[5-(4-Fluorophenylethynyl)-pyridin-2-yl]-hexahydro-cyclopenta[d][1,3]oxazin-2-one]	8.00	10 nM	40%	NO FLAG
CC1(C)COC(=O)N(c2ccc(C#Cc3ccccc3)cn2)C1 [Ref. Ex. 20]	7.57	–	135%	–
CC1(C)CCN(c2ccc(C#Cc3ccc(F)cc3)cn2)C(=O)O1 [Ref. Ex. 79]	7.66	–	85%	FLAG
O=C1OC[C@H]2CCC[C@H]2N1c1ccc(C#Cc2cc(F)ccc2F)cn1 [Ex. 4, (4aS,7aR)-1-[5-(2,5-Difluorophenylethynyl)-pyridin-2-yl]-hexahydro-cyclopenta[d]-[1,3]oxazin-2-one]	7.82	15 nM	35%	NO FLAG
O=C1O[C@H]2CCC[C@H]2CN1c1ccc(C#Cc2ccccc2)cn1 [Ref. Ex. 103]	7.57	–	123%	FLAG
CC1(C)CCN(c2ccc(C#Cc3ccccc3)cn2)C(=O)O1 [Ref. Ex. 72]	8.00	–	86%	FLAG
CC1(C)CCN(c2ccc(C#Cc3cccc(F)c3)cn2)C(=O)O1 [Ref. Ex. 76]	7.89	–	124%	FLAG
